Experimental data as given in ChEMBL document CHEMBL4725370, “Discovery of Proteolysis-Targeting Chimera Molecules that Selectively Degrade the IRAK3 Pseudokinase” (J Med Chem, 2020).
Active and inactive are the calls of the source. The calls are words filed in the database; no cut-off is given here.

Tests used:
[1] = target: Protein cereblon/Interleukin-1 receptor-associated kinase 4 (Homo sapiens) (UniProt Q9NWZ3+Q96SW2); assay: Protac activity at CRBN/IRAK4 in LPS-induced human THP1 cells assessed as induction of IRAK4 degradation at 0.1 uM measured after 6 hrs by HPLC-MS based global proteomic analysis; type: cell-based; conditions: THP-1
[2] = target: T1, Interleukin-1 receptor-associated kinase 4 (Homo sapiens, UniProt Q9NWZ3); assay: Inhibition of recombinant human full-length His-tagged IRAK4 expressed in baculovirus expression system using 5-FAM-IPTSPITTTYFFFKKK-COOH as substrate measured after 240 mins by mobility shift assay
T1 sequence (Q9NWZ3 whole entry): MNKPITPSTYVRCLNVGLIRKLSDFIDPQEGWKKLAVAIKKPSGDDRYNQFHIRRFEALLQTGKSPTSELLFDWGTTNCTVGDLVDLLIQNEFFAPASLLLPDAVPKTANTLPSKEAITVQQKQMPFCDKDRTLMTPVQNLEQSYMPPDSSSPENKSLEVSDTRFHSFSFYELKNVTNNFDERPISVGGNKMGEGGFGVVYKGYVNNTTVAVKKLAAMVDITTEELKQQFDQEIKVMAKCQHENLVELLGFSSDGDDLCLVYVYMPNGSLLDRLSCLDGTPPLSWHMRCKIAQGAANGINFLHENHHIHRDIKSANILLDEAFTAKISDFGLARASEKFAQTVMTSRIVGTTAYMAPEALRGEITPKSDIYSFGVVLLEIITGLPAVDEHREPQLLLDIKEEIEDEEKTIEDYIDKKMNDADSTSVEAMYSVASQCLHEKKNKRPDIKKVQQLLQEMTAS

[3] = Octanol/buffer partition coefficient, log D of the compound at pH 7.4 by shake-flask method; type: physicochemical
[4] = target: T2, Protein cereblon/Interleukin-1 receptor-associated kinase 3 (Homo sapiens, UniProt Q9Y616+Q96SW2); assay: Protac activity at CRBN/IRAK3 in LPS-induced human THP1 cells assessed as induction of IRAK3 degradation after 16 hrs by Western blot analysis relative to control; type: cell-based; conditions: THP-1
[5] = target: T2, Protein cereblon/Interleukin-1 receptor-associated kinase 3; assay: Protac activity at CRBN/IRAK3 in human THP1 cells assessed as induction of IRAK3 degradation at 0.1 uM measured after 6 hrs in presence of NEDD8-activating enzyme inhibitor MLN4924 by Western blot analysis; type: cell-based; conditions: THP-1
[6] = target: T2, Protein cereblon/Interleukin-1 receptor-associated kinase 3; assay: Protac activity at CRBN/IRAK3 in LPS-induced human THP1 cells assessed as induction of IRAK3 degradation at 0.1 uM measured after 6 hrs by HPLC-MS based global proteomic analysis relative to control; type: cell-based; conditions: THP-1
[7] = target: NT-3 growth factor receptor (Homo sapiens, UniProt Q16288); assay: Inhibition of NTRK3 (unknown origin)
CDK8/Cyclin C = CDK8/Cyclin C (Homo sapiens, UniProt P49336); assay: Inhibition of CDK8/cyclin C (unknown origin); type: protein-complex assay
[8] = target: Delta(24)-sterol reductase (Homo sapiens) (UniProt Q15392); assay: Displacement of polymer supported probe 25 binding to DHCR24 in human THP-1 cell lysates at 30 uM preincubated for 45 mins under shaking condition followed by probe addition and measured after 30 mins by mass spectrometry based chemoproteomic analysis relative to control; type: subcellular
[9] = target: Interleukin-1 receptor-associated kinase 1 (Homo sapiens, UniProt P51617); assay: Inhibition of recombinant human N-terminal GST-tagged IRAK1 (194 to 712 residues) expressed in baculovirus expression system using 5-FAM-KKKVSRSGLYRSPSMPENLNRPR-COOH as substrate measured after 240 mins by mobility shift assay
[10] = target: T3, Serine/threonine-protein kinase haspin (Homo sapiens, UniProt Q8TF76); assay: Displacement of polymer supported probe 25 binding to GSG2 in human THP-1 cell lysates preincubated for 45 mins under shaking condition followed by probe addition and measured after 30 mins by mass spectrometry based chemoproteomic analysis; type: subcellular; conditions: read-out: Kd(app)
T3 sequence (Q8TF76 whole entry): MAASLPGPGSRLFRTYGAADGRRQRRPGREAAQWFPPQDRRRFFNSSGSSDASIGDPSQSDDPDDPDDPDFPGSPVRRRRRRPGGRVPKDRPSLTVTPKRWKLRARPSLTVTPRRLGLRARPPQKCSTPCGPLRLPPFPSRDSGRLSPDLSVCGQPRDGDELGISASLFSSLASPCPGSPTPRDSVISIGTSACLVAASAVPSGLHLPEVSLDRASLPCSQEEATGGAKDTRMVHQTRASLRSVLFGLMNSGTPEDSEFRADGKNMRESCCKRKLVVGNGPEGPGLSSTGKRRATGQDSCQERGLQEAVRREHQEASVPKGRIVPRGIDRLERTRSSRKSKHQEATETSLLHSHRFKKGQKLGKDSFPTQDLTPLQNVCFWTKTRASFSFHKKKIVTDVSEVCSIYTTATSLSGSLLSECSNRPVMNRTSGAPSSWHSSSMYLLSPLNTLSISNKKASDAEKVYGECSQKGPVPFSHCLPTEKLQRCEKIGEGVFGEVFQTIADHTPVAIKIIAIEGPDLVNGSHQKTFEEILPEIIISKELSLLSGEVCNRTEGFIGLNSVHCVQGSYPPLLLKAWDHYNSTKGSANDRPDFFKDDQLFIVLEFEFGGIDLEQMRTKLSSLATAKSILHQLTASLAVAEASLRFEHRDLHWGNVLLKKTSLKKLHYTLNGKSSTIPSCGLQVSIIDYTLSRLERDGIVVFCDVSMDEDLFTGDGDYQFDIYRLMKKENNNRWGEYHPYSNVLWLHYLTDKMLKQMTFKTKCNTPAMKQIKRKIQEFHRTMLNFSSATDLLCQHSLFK

[11] = target: T2, Protein cereblon/Interleukin-1 receptor-associated kinase 3; assay: Protac activity at CRBN/IRAK3 in human PBMC derived primary macrophages assessed as induction of IRAK3 degradation at 0.3 uM measured after 8 to 32 hrs by Western blot analysis; type: tissue-based; conditions: Primary macrophage, time hrs 8-32
[12] = target: Cereblon/Ikaros (Homo sapiens) (UniProt Q96SW2+Q13422); assay: Protac activity at CRBN/IKZF1 in LPS-induced human THP1 cells assessed as induction of IKZF1 degradation at 0.1 uM measured after 6 hrs by HPLC-MS based global proteomic analysis; type: cell-based; conditions: THP-1
[13] = target: Cyclin-dependent kinase 8 (Homo sapiens, UniProt P49336); assay: Displacement of polymer supported probe 25 binding to CDK8 in human THP-1 cell lysates preincubated for 45 mins under shaking condition followed by probe addition and measured after 30 mins by mass spectrometry based chemoproteomic analysis; type: subcellular; conditions: read-out: Kd(app)
[14] = target: Serine/threonine-protein kinase haspin (Homo sapiens) (UniProt Q8TF76); assay: Inhibition of GSG2 (unknown origin) at 0.1 uM relative to control
THP-1 = assay: Selectivity ratio of Kd(app) for displacement of polymer supported probe 25 binding to IRAK1 in human THP-1 cell lysates to Kd(app) for displacement of polymer supported probe 25 binding to IRAK3 in human THP-1 cell lysates
[15] = target: Protein cereblon/Eukaryotic peptide chain release factor GTP-binding subunit ERF3A (Homo sapiens) (UniProt Q96SW2+P15170); assay: Protac activity at CRBN/GSPT1 in LPS-induced human THP1 cells assessed as induction of GSPT1 degradation at 0.1 uM measured after 6 hrs by HPLC-MS based global proteomic analysis; type: cell-based; conditions: THP-1
[16] = target: T3, Serine/threonine-protein kinase haspin; assay: Inhibition of GSG2 (unknown origin)

T2 sequence (Q96SW2 whole entry, looked up): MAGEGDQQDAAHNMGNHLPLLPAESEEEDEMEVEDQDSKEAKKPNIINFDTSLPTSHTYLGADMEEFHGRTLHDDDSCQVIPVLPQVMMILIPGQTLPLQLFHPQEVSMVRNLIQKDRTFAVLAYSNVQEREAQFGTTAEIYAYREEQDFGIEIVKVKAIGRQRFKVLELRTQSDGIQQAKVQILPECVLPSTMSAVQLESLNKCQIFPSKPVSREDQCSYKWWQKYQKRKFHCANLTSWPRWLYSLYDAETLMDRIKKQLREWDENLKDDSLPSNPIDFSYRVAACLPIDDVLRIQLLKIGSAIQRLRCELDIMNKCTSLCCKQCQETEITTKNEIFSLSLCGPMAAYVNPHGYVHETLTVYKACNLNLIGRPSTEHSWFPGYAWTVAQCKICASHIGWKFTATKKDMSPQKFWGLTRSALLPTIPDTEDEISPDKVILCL
T2 sequence (Q9Y616 whole entry, looked up): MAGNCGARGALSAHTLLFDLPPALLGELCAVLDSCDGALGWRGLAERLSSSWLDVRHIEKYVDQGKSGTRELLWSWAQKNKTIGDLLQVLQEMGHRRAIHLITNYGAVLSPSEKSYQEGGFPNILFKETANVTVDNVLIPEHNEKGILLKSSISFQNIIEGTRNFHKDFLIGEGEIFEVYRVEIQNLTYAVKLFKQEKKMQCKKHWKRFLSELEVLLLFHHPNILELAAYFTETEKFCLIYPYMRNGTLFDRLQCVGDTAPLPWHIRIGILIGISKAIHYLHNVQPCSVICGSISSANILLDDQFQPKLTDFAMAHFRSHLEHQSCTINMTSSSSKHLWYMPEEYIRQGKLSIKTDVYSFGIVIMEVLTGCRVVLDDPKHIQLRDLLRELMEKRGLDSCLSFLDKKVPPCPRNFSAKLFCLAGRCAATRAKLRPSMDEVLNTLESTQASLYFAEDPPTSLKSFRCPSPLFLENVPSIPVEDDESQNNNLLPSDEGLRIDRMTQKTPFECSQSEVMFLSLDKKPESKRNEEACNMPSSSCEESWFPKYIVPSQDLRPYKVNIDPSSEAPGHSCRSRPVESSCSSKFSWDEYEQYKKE
Chain of NT-3 growth factor receptor (Q16288 whole entry): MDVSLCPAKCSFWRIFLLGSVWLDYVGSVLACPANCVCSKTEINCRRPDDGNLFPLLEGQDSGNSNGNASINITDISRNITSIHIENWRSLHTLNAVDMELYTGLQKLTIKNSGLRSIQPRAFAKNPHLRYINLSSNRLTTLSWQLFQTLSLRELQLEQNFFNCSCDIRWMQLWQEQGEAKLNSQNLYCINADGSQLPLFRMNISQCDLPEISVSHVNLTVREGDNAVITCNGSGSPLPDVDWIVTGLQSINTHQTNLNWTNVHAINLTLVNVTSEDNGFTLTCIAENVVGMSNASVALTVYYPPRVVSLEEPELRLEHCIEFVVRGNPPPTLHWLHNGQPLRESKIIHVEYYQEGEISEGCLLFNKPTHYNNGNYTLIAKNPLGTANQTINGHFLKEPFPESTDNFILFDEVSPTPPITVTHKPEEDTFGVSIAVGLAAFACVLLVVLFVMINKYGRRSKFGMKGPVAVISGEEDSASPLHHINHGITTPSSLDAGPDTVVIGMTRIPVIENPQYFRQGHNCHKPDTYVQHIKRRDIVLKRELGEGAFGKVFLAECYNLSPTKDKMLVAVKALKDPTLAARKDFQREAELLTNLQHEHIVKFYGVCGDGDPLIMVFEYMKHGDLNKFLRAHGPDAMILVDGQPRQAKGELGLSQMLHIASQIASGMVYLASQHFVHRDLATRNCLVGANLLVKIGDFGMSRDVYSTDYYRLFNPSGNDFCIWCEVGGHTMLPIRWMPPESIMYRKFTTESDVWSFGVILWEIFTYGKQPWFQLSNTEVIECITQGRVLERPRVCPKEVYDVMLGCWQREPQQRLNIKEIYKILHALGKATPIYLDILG
Chain of Protein cereblon/Interleukin-1 receptor-associated kinase 4 (Homo sapiens) (Q96SW2 whole entry, looked up, one chain of several): as the sequence (Q96SW2 whole entry, looked up) above
Chain of Protein cereblon/Eukaryotic peptide chain release factor GTP-binding subunit ERF3A (Homo sapiens) (P15170 whole entry, looked up): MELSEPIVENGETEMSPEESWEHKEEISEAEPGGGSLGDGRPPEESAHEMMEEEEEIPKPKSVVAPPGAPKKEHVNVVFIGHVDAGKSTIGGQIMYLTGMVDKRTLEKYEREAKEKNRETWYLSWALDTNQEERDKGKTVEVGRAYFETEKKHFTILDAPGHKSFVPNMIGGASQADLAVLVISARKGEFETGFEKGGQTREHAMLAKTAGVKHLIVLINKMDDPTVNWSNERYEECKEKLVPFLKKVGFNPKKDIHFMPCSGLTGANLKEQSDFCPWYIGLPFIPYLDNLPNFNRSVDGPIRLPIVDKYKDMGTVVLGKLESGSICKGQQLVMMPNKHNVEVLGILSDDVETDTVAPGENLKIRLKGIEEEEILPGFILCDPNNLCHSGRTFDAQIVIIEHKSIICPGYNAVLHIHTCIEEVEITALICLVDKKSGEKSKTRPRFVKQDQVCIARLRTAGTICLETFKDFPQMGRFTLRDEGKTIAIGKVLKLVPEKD
Chain of Protein cereblon/Eukaryotic peptide chain release factor GTP-binding subunit ERF3A (Homo sapiens) (Q96SW2 whole entry, looked up): as the sequence (Q96SW2 whole entry, looked up) above
Chain of CDK8/Cyclin C (P49336 whole entry): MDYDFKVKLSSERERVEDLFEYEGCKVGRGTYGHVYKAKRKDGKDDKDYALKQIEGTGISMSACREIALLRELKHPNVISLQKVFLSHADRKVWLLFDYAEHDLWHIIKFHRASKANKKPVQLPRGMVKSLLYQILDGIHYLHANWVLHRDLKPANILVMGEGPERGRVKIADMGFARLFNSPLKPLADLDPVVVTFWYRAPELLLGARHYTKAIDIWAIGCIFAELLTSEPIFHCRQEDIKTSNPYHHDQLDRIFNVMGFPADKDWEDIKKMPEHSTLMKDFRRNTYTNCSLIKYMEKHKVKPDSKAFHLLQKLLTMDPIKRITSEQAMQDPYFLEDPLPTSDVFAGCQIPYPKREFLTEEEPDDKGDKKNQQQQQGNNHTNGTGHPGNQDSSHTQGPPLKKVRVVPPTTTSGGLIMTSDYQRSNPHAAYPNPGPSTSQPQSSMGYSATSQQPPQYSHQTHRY
Chain of CDK8/Cyclin C (P24863 whole entry, further chain): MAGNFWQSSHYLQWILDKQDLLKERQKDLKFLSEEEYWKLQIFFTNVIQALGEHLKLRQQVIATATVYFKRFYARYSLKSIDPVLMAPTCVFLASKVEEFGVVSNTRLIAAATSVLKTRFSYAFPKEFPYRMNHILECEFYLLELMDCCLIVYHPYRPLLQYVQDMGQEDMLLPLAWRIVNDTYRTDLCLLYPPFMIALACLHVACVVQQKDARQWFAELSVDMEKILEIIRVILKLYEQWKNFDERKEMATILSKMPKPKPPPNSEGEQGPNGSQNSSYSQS
Chain of Cyclin-dependent kinase 8 (P49336 whole entry): as the sequence (P49336 whole entry) above
Chain of Interleukin-1 receptor-associated kinase 1 (P51617 whole entry, the tested form may be a part): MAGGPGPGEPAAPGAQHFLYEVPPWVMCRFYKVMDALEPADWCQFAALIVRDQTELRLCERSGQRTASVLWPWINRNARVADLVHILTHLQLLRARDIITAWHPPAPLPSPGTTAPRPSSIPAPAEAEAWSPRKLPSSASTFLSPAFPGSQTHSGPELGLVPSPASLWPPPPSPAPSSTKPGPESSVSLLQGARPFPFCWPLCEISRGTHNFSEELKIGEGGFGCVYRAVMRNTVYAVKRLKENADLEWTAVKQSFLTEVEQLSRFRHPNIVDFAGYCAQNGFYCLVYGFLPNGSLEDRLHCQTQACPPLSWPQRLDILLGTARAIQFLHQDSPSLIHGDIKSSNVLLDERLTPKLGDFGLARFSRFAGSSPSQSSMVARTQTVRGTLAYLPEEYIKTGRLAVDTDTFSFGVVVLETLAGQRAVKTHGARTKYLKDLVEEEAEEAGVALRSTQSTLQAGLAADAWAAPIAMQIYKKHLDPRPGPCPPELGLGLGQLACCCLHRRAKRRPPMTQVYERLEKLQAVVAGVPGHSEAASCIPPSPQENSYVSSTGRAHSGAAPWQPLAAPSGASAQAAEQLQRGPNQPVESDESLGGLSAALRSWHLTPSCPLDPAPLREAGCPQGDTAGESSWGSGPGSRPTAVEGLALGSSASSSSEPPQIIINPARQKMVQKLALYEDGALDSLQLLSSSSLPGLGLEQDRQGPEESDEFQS
Chain of Delta(24)-sterol reductase (Homo sapiens) (Q15392 whole entry, the tested form may be a part): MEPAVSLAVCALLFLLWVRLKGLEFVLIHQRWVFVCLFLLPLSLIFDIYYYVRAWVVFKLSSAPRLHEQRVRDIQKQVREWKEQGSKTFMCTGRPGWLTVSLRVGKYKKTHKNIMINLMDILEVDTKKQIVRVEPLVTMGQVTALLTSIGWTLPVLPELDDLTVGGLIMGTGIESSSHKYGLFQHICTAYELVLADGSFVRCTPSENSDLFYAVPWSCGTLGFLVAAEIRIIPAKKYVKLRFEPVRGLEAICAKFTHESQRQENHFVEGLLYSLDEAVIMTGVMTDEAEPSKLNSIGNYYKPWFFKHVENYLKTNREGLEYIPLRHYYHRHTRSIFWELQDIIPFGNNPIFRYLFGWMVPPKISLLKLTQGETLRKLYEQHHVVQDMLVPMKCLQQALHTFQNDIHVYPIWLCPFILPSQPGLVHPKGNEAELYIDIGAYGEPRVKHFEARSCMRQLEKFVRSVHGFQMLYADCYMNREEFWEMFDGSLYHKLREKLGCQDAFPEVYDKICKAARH

Activity [1]: inactive
IC50 [2]: 1400 nM
logD [3]: 3.1
Emax [4]: 98%
Activity [5]: inactive
fold change (FC) [6]: -1.8
IC50 [7]: 100 nM
IC50 (CDK8/Cyclin C): 36 nM
inhibition [8]: < 40%
IC50 [9]: 2300 nM
Kd [10]: 780 nM
Activity [11]: Active
Activity [12]: inactive
Kd [13]: 1400 nM
inhibition [14]: 57%
Activity [15]: inactive
IC50 [16]: 110 nM
SMILES: CC(C)c1ccn2ncnc(N[C@H]3CC[C@@H](N4CCN(C(=O)CCC(=O)N5CCC(CCN6CCN(c7ccc8c(c7)C(=O)N(C7CCC(=O)NC7=O)C8=O)CC6)CC5)CC4)CC3)c12 (stereo partly drawn)
Selectivity ratio (THP-1): 82
